In ChEMBL document CHEMBL1158885, “A new sesquiterpenoid quinone and other related compounds from the Okinawan marine sponge Dactylospongia elegans” (J Nat Prod, 2003):
pIC50: −log10 of the molar value.

Test system: HeLa
Test: Cytotoxicity against human HeLa cells
Format: functional, cell-based

C=C1CCC[C@H]2[C@]3(C)OC4=C(C[C@]3(C)CC[C@]12C)C(=O)C(OC)=CC4=O [NEODACTYLOQUINONE] gave a pIC50 of 4.07.
